The record followed here is ChEMBL document CHEMBL1135308, “Non-peptide alpha(v)beta(3) antagonists. Part 4: potent and orally bioavailable chain-shortened RGD mimetics” (Bioorg Med Chem Lett, 2002).

Data set [1] concerns the target Integrin alpha-V/beta-3 (Homo sapiens, UniProt P05106+P06756). The data set is described as follows: Inhibition of binding to human alpha V beta3. Format: protein-complex assay.
A short description of data set [2]: Compound was tested for plasma half life when administered in dog perorally (1 mg/kg) and intravenously (0.2 mg/kg). Format: ADME, organism-based, Canis lupus familiaris.
The nature of data set [3]: Compound was tested for its ability of plasma clearance when administered in dog perorally (1 mg/kg) and intravenously (0.2 mg/kg). Format: ADME, organism-based, Canis lupus familiaris. The conditions noted are these: iv.
The nature of data set [4]: Oral bioavailability in dog (1 mg/kg p.o. and 0.2 mg/kg i.v.). Format: ADME, organism-based, Canis lupus familiaris. The conditions noted are these: in vivo.
A short description of data set [5]: Partition coefficient (logP). Format: physicochemical. The conditions noted are these: octanol/water.
The species named for data set [6] is Homo sapiens. As to the kind of experiment: Inhibitory concentration required for 50% inhibition of the rate of ADP-stimulated platelet aggregation. Format: functional, organism-based.

Sequence of Integrin alpha-V/beta-3 (P05106 27-788 limits assumed): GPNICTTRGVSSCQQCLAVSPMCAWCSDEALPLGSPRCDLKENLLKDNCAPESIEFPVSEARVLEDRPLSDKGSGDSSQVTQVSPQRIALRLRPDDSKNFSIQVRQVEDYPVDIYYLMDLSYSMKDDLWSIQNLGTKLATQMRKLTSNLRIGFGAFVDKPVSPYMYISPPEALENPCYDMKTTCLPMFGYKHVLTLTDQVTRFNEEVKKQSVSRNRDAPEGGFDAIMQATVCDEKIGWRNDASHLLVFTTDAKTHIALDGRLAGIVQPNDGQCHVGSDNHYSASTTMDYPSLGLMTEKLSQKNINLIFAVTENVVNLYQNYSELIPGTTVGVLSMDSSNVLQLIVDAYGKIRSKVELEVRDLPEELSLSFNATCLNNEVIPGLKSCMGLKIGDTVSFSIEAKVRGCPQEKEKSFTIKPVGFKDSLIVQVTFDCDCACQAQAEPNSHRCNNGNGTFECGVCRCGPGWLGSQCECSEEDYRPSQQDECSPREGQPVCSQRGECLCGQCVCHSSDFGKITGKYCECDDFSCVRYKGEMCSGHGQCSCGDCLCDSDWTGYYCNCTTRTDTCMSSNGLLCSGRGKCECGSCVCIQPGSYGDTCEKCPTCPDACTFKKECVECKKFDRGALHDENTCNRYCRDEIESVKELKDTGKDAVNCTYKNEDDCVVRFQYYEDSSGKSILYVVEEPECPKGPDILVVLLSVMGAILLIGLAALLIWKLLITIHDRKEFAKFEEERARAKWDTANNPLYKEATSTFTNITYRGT
Sequence of Integrin alpha-V/beta-3 (P06756 31-889 limits assumed): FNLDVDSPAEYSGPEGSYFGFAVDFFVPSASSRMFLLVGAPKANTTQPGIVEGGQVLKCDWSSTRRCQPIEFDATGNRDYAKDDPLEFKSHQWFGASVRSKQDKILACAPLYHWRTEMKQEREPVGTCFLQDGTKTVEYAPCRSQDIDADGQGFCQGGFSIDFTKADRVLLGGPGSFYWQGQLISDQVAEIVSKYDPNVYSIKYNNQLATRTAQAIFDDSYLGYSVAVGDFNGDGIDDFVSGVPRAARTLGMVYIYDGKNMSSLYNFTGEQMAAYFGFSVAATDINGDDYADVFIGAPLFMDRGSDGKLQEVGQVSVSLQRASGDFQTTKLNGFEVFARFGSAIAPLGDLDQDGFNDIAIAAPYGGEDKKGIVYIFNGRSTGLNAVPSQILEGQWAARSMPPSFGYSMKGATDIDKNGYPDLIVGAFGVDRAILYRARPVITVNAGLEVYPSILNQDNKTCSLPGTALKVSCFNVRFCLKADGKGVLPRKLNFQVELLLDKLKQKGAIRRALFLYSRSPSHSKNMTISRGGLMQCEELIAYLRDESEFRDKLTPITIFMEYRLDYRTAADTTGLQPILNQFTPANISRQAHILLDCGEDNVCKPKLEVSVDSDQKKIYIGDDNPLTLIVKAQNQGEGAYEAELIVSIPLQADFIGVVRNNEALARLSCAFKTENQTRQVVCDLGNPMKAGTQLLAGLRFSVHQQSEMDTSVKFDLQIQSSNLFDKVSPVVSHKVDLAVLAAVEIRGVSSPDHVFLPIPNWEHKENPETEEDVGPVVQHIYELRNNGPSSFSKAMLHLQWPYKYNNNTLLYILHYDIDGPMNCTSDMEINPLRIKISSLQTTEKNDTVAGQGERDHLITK
Sequence of Integrin alpha-V/beta-3 (P06756 891-1048 limits assumed): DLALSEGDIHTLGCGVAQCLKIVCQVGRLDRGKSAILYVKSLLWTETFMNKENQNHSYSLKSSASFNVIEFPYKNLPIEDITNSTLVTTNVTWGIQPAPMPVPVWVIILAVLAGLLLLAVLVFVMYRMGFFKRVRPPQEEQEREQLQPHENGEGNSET

Take `O=C(O)C[C@H](NC(=O)CCCCCc1ccc2c(n1)NCCC2)c1cnc2ccccc2c1`: the IC50 in data set [1] amounted to 5.9 nM.

In data set [2], `O=C(O)C[C@H](NC(=O)CCCCc1ccc2c(n1)NCCC2)c1ccc2nc(O)oc2c1` gave a half-life of 1.2 h. The same molecule displayed a clearance in data set [3] of 37 mL/min/kg. This molecule gave a bioavailability in data set [4] of 25%. Also, the logP in data set [5] is -0.24. Besides, the IC50 in data set [6] was more than 10000 nM; in data set [1], 13.1 nM.

Turning to `O=C(O)C[C@H](NC(=O)CNC(=O)CCCc1ccc2c(n1)NCCC2)c1cnc2ccccc2c1`, the half-maximal inhibitory concentration (IC50) in data set [1] was determined as 0.67 nM.

Turning to `O=C(O)C[C@H](NC(=O)CCCCc1ccc2c(n1)NCCC2)c1ccc2c(c1)OCC2`, in data set [2], the half-life was 2.5 h. This molecule gave a clearance in data set [3] of 1.2 mL/min/kg. Besides, the bioavailability in data set [4] amounted to 99%. For the same molecule, in data set [5], the lipophilicity (logP) turned out to be 0.53. For the same molecule, the figures for the IC50 in data set [6] and in data set [1] were more than 10000 nM and 3 nM, respectively.

For `O=C(O)CCNC(=O)CCCCc1ccc2c(n1)NCCC2`, in data set [1], the half-maximal inhibitory concentration (IC50) worked out at 500 nM.

In data set [1], `O=C(O)CCNC(=O)CNC(=O)CCCc1ccc2c(n1)NCCC2` returned a half-maximal inhibitory concentration (IC50) of 48 nM.

For the molecule `O=C(O)C[C@H](NC(=O)CCCCCCc1ccc2c(n1)NCCC2)c1cnc2ccccc2c1`, the IC50 in data set [1] amounted to 5.8 nM.

`O=C(O)C[C@H](NC(=O)CCCCc1ccc2c(n1)NCCC2)c1cnc2ccccc2c1` showed a half-life in data set [2] of 2.4 h. In data set [3], this molecule registered a clearance of 5.8 mL/min/kg. In data set [4], this molecule gave a bioavailability of 65%. In data set [5], this molecule yielded a log partition coefficient (logP) of 0.76. The IC50 stood at 4440 nM in data set [6] and 1.6 nM in data set [1].

With `O=C(O)C[C@H](NC(=O)CCCCc1ccc2c(n1)NCCC2)c1ccc2c(c1)OCO2`, the half-life in data set [2] is 2.4 h. In data set [3], this molecule displayed a clearance of 1.2 mL/min/kg. The bioavailability in data set [4] is 94%. In data set [5], the log partition coefficient (logP) came out at 0.47. The figures for the IC50 in data set [6] and in data set [1] were more than 10000 nM and 1.5 nM, respectively.

In turn, `O=C(O)C[C@H](NC(=O)CCCCc1ccc2c(n1)NCCC2)c1cccc(F)c1` gave a half-life in data set [2] of 5.5 h. Besides, in data set [3], the clearance worked out at 2 mL/min/kg. This molecule gave a bioavailability in data set [4] of 81%. The log partition coefficient (logP) in data set [5] was determined as 0.29. The concentration for half-maximal inhibition (IC50) in data set [6] was more than 10000 nM; in data set [1], 23 nM.

`O=C(O)C[C@H](NC(=O)CCCCc1ccc2c(n1)NCCC2)c1cncnc1` gave a half-life in data set [2] of 2.4 h. In addition, the clearance in data set [3] was 26 mL/min/kg. This molecule came in with a bioavailability in data set [4] of 10%. For the same molecule, in data set [5], the logP is -1.21. Besides, the IC50 in data set [6] is more than 10000 nM; in data set [1], 3.3 nM.
